In one assay the target is A2A adenosine receptors (Sus scrofa, UniProt K9IW67). Nature of the assay: Competitive radioligand binding, [3H]ZM241385, pig striatum membranes. The procedure:
Membranes were also obtained from porcine striatial cells as follows. […] The homogenate was filtered through cotton gauze and centrifuged at 48,000g for 15 minutes at 4° C. […] The final pellet was frozen at −80° C. until used for receptor binding assays.

Assay [1] can be described thus: Coronary blood flow and reversal time, intracoronary infusion in open-chest anesthetized pigs. The assay is classed as in vivo. Particulars: 50 ug/kg/min intracoronary. On the procedure: The magnitude of the effect of A2A adenosine receptor agonists on coronary dilation and the duration of the effect was determined in pigs weighing 22-27 kg. […] In addition, animals were used in accordance with the guidelines of the University of Kentucky Institutional Animal Care and Use Protocol.
Anesthesia was maintained with additional sodium pentobarbital (1.5-2 mg/kg, i.v.) every 15-20 minutes. Animals were ventilated via a tracheotomy tube using a mixture of room air and 100% O2. Tidal volume, respiratory rate and fraction of O2 in inspired air were adjusted to maintain arterial blood gas (ABG) and pH values. […] Lactate Ringers solution was administered via an ear or femoral vein as an initial bolus of 300-400 ml followed by a continuous infusion at a rate of 5-7 ml/kg/hr. A catheter was inserted into the femoral artery to monitor arterial blood pressure.
The heart was exposed through a median sternotomy and suspended in a pericardial cradle. Left ventricular pressure (LVP) was measured with a 5F high fidelity pressure sensitive tip transducer (Millar Instruments, Houston, Tex.) placed in the left ventricular cavity via an apical incision and secured with a purse string suture. A segment of the left anterior descending coronary artery (LAD), proximal to the origin of the first diagonal branch, was dissected free of surrounding tissue. A transit time perivascular flow probe (Transonic Systems Inc., Ithaca, N.Y.) was placed around this segment to measure CBF. Proximal to the flow probe, a 24-gauge modified angiocatheter was inserted for intracoronary infusions. […] The A2A adenosine receptors agonists were administered intracoronary.
Relationship between affinity of various agonists for A2A adenosine receptor and the reversal time of their effect to increase coronary conductance was determined in pigs. Each experiment was preceded by a 30-minute stabilization period following the completion of all instrumentation of the animal. Baseline hemodynamic data were then recorded and an intracoronary infusion of an A2A Adenosine receptors agonist was initiated. Each infusion was maintained for 4-5 minutes to allow LAD CBF to reach a steady-state, after which the infusion was terminated. The times to recovery of CBF by 50% (t0.5) and 90% (t0.9) of the difference from peak effect to baseline CBF were recorded. Ten to 15 minutes after CBF returned to pre-drug values a second infusion with a different agonist was started. […] Hemodynamic measurements were made prior to and following the initiation of the phenylephrine infusion. The phenylephrine infusion rate was adjusted during and following the infusions of the adenosine receptor agonists to maintain arterial blood pressure within 5 mmHg of pre-infusion values. The effect of a maximum of three different agonists was determined in each experiment.

The target in assay [2] is human A2A adenosine receptors (Homo sapiens, UniProt P29274). Nature of the assay: Competitive radioligand binding, [3H]ZM241385, HEK-hA2AAdoR membranes.
Protocol: Each point represents the mean±SEM of triplicates pooled from at least three experiments.
ZM241385 was purchased from Tocris Cookson Ltd (Langford, Bristol, UK).
Competitive radiolabeling binding assays were performed to determine the binding affinities of the compounds of the invention for the adenosine receptor subtypes, A1, A2A, A2B and A3. Briefly, membrane suspensions, obtained from cells expressing either adenosine receptor subtypes A1, A2A, A2B or A3were incubated for 2 hours at room temperature in 50 mmol/L Tris-HCl buffer (pH 7.4) containing ADA (1U/mL). […] At the end of the incubation, free radioligand was separated from membrane-bound radioligand by filtration through Whatman GF/C glass fiber filters using a Brandel tissue harvester (Gaithersburg, Md.). Triplicate determinations were performed for each concentration of unlabelled compound.
Assay [3] deals with A2A adenosine receptors (PC12 cells) (Rattus norvegicus, UniProt P30543). Nature of the assay: Rate of decline of agonist-stimulated cAMP in PC12 cells after A2A antagonist SCH58261. Particulars: agonist 1 μM, after addition of SCH58261 (20 μM).
Where [4] appears, read: [3H]ZM241385, Gpp(NH)p present, read-out: pKi ± SEM, Pig Strialum (A2A) (converted).
The mark [5] stands for this setting: read-out: binding affinity to A2A receptors in pig striatum (Ki).

Where two headings read alike, the source gives them in different places.

Chain of A2A adenosine receptors (K9IW67 1-409): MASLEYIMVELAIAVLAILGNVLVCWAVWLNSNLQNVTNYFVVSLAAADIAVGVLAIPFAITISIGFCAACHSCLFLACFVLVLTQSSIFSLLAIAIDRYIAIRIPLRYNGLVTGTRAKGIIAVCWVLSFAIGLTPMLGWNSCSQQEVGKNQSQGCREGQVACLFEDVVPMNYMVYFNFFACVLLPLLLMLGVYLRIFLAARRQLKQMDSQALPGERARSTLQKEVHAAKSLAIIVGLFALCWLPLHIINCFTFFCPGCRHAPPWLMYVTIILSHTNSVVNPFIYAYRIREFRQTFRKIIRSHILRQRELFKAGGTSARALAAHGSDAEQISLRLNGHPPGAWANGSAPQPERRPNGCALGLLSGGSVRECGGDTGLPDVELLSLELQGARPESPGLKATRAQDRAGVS
Chain of human A2A adenosine receptors (P29274 whole entry): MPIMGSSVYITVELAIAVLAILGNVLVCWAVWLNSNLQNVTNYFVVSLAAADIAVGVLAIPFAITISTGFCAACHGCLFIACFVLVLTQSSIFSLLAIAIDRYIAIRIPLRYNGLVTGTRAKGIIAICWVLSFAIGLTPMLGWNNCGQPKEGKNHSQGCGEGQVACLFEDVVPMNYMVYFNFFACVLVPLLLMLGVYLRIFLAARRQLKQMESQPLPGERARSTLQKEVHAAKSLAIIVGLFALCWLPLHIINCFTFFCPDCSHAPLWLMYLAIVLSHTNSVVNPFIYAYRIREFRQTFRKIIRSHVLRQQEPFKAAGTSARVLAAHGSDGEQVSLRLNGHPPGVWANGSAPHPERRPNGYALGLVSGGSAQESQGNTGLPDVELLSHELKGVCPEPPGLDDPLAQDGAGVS
Chain of A2A adenosine receptors (PC12 cells) (P30543 whole entry): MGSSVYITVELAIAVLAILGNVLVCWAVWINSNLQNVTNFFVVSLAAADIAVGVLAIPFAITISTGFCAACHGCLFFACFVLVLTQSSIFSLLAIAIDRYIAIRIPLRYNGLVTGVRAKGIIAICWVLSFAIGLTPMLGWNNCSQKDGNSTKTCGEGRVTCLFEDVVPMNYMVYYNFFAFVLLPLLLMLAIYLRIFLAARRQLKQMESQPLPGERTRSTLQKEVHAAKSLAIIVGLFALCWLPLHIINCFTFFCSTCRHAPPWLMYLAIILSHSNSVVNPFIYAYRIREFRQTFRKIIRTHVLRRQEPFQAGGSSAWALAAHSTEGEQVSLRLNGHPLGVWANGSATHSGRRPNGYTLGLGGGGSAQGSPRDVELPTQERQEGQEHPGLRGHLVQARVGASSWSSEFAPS

`CNC(=O)c1cnn(-c2nc(N)c3ncn(C4O[C@@H](CO)[C@H](O)[C@@H]4O)c3n2)c1` (stereo partly shown) [CVT-3146]: the Ki at A2A adenosine receptors (setting [4]) is 1.12 µM; on A2A adenosine receptors (setting [5]) it was 1.1 µM.
As for `CCCCCn1cc(-c2nc(N)c3ncn(C4O[C@@H](CO)[C@H](O)[C@@H]4O)c3n2)cn1` (stereo partly shown) [CVT-3033], the Ki at A2A adenosine receptors (setting [4]) was 2.14 µM; on A2A adenosine receptors (setting [5]), 1.42 µM; in assay [2] (binding affinity in HEK cells expressing human A2A receptors (Ki)), 2.9 µM; in assay [2] (pKi ± SEM, HEK-hA2AAdoR, [3H]ZM241385), 2.88 µM. For the same molecule, in assay [1], the “CBF (fold-increase)” value came out at 3.33 ± 0.58 fold. Also, the “t0.5 reversal of increase in coronary blood flow” value in assay [1] worked out at 3.1 ± 0.9 min. Besides, the “t0.9 reversal of increase in coronary blood flow” value in assay [1] came to 12.0 ± 1.0 min. In addition, the “t0.5, rate of decline of cAMP accumulated” value in assay [3] came out at 1.9 ± 0.1 min.

The record behind these values is patent US20050175535A1 (CV Therapeutics, Inc., priority 2000, published 2005).
